These results are taken from patent US20060270648A1, “USE OF POLYAMINES WITH ANTIBIOTICS” (priority 2005, published 2006).

≈ marks a conversion by molar mass, not a printed value. Like-named read-outs stand apart in the source and are kept apart here.

Experiment [1] relates to methicillin resistant Staphylococcus aureus (MRSA) Mu50. The experiment can be described thus: MIC of antibiotics against MRSA Mu50 with or without spermine. In kind it is cell-based.
The next experiment has as its system E. coli K10. The experiment can be described thus: MIC of carbenicillin against E. coli K10 with divalent ions or salt and polyamines. In kind it is cell-based. The conditions noted are these: Escherichia coli, read-out: MICs to carbenicillin.
Experiment [2] deals with MRSA Staphylococcus aureus 700699. The experiment can be described thus: MIC of antibiotics against MRSA Staphylococcus aureus 700699 with or without spermine. Format: cell-based.
Experiment [3] deals with E. coli (K10, K12, C921-61). The experiment can be described thus: MIC of antibiotics against E. coli strains with or without polyamines (FIG. 3). In kind it is cell-based. The conditions noted are these: E. coli K10, K12, C921-61 and S. typhimurium LT2.
Method: (§1) Various strains of bacteria, including P. aeruginosa and e. coli were grown on Luria-Bertani (LB) agar/broth or Mueller-Hinton (MH) agar/broth. […] The antibiotics, chemicals, and/or polyamines were dissolved in double distilled water or solvent and thereafter filtered through a 0.4 μm disposable membranes.
(§2) The MIC values of the strains associated with various combinations of polyamines and antibiotics were determined using standard two-fold agar dilutions techniques and broth dilutions techniques in Mueller-Hinton broth. The lowest concentration of drug with no visible turbidity was deemed the MIC.
Experiment [4] relates to P. aeruginosa PAO1. Put plainly: Time killing assay of P. aeruginosa PAO1 in human serum (FIG. 4). In kind it is cell-based. The method, then:
Time-killing assays were performed for various bacteria samples. Briefly, the tested bacteria were grown to mid-log phase in Mueller-Hinton broth media. […] As a control group, cells were diluted in a sodium phosphate without any additional compounds. Aliquots were withdrawn at specific time intervals and spread on LB agar plates and incubated overnight at 37 C. The percent of colonies that survived were determined relative to the control.

Experiment [5] relates to Salmonella typhimurium LT2.
Method: as §1, §2
The subject of experiment [6] is Salmonella typhimurium LT2. Put plainly: microbe, parasite or virus in culture. The following applies: Salmonella enterica, read-out: MICs in the indicated concentrations (mM) of polyamines: No add.
Method: as §1, §2
Experiment [7] concerns P. aeruginosa PAO1. Put plainly: MIC of antibiotics against P. aeruginosa PAO1 with or without polyamines. Format: cell-based.
Method: as §1, §2
Experiment [8] relates to outer membrane permeability. The experiment can be described thus: Outer membrane permeabilization assay (β-lactamase activity in whole cells or released into suspension). Format: cell-based. The following applies: 20 mM (FIG. 7). As to the method:
The β-lactamase activity was determined by a spectrophotometric method using nitrocefin as a substrate. After the β-lactamase was extracted from the cells, the β-lactamase activity was monitored by absorbance changes in wavelength at 486 nm with a molar extinction coefficient of 20500. The extent of hydrolysis was a reflection of the amount of enzyme remaining uninhibited.
An outer membrane permeabilization assay was performed by examining the release of the chromosomally encoded β-lactamase. Briefly, stationary phase cells were diluted 1:59 into 20 mL pre-warmed MMP broth and cultured in an incubator at 350 rpm and at 37 C for 5 hours. After carbenicillin (200 μg/mL) was added to induce β-lactamase activity, the culture was incubated for additional 5 hours. The cells were harvested by centrifugation at 5,000×g for 10 minutes and washed once with 0.05M sodium phosphate buffer at pH 7.2. The cell pellet was resuspended in 5 mL of the same buffer and divided into 1 mL aliquots. […] […] The reaction mixtures were incubated at room temperature for 5 minutes and immediately centrifuged at full speed (15000×g) for 20 minutes and the supernatant was used for β-lactamase sources. β-lactamase activity was determined as described above using 300 μL of the supernatant.
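For MICs in the indicated concentrations (mM) of polyamines: Spermidine (20 mM) in this document: Two-fold agar or broth dilution in Mueller-Hinton broth, MIC taken as lowest drug concentration without visible turbidity, tested alone or combined with polyamines.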
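For MICs in the indicated concentrations (mM) of polyamines: Spermine (1 mM) in this document: Two-fold agar or broth dilution in Mueller-Hinton broth, MIC taken as lowest drug concentration without visible turbidity, tested alone or combined with polyamines.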

Method for E. coli K10: as §1, §2

Take `CC1(C)S[C@@H]2[C@H](NC(=O)C(C(=O)O)c3ccccc3)C(=O)N2[C@H]1C(=O)O` (stereo partly drawn) [Carbenicillin]: the MIC is 256 µg/mL in [1] (Staphylococcus aureus, MRSA, no spermine, read-out: MICs in the presence or absence of spermine (1 mM): No add); 2 µg/mL in the experiment with E. coli K10 (K10, MHB + 1 mM CaCl2, Spermidine (10 mM)); 1 µg/mL in the experiment with E. coli K10 (K10, MHB + 1 mM CaCl2, Spermine (1 mM)); 16 µg/mL with E. coli K10 (K10, MHB + 1 mM CaCl2, no polyamine); 4 µg/mL in the experiment on E. coli K10 (K10, MHB + 1 mM MgSO4, Spermidine (10 mM)); 1 µg/mL in the experiment with E. coli K10 (K10, MHB + 1 mM MgSO4, Spermine (1 mM)). Also, the MIC with E. coli K10 (K10, MHB + 1 mM MgSO4, no polyamine) was determined as 16 µg/mL; in the experiment with E. coli K10 (K10, MHB + 3 mM CaCl2, Spermidine (10 mM)), 4 µg/mL; in the experiment with E. coli K10 (K10, MHB + 3 mM CaCl2, Spermine (1 mM)) it was 4 µg/mL; in the experiment with E. coli K10 (K10, MHB + 3 mM CaCl2, no polyamine), 16 µg/mL; in the experiment on E. coli K10 (K10, MHB + 3 mM MgSO4, Spermidine (10 mM)), 4 µg/mL; in the experiment with E. coli K10 (K10, MHB + 3 mM MgSO4, Spermine (1 mM)) it was 4 µg/mL. Moreover, the MIC came out at 16 µg/mL in the experiment on E. coli K10 (K10, MHB + 3 mM MgSO4, no polyamine); 4 µg/mL with E. coli K10 (K10, MHB + 100 mM NaCl, Spermidine (10 mM)); 4 µg/mL with E. coli K10 (K10, MHB + 100 mM NaCl, Spermine (1 mM)); 16 µg/mL with E. coli K10 (K10, MHB + 100 mM NaCl, no polyamine); 4 µg/mL with E. coli K10 (K10, MHB + 150 mM NaCl, Spermidine (10 mM)); 4 µg/mL in the experiment with E. coli K10 (K10, MHB + 150 mM NaCl, Spermine (1 mM)). The MIC in the experiment with E. coli K10 (K10, MHB + 150 mM NaCl, no polyamine) amounted to 16 µg/mL; in the experiment with E. coli K10 (K10, MHB medium, no supplement, Spermidine (10 mM)) it was 4 µg/mL; in the experiment with E. coli K10 (K10, MHB medium, no supplement, Spermine (1 mM)), 1 µg/mL; with E. coli K10 (K10, MHB medium, no supplement, no polyamine), 16 µg/mL; in [2] (Staphylococcus aureus, MRSA, no spermine, read-out: MICs in the absence or presence of spermine: No add) it was 256 µg/mL; in experiment [6], 8 µg/mL (≈ 21.1 µM). For the same compound, in [1] (with 1 mM spermine), the “MICs in the presence or absence of spermine (1 mM): Spermine” value is 4 µg/mL. Besides, the “MICs in the absence or presence of spermine: Spermine (1 mM)” value in [2] (with 1 mM spermine) amounted to 4 µg/mL. Further, the “susceptibility with the combination of polyamines and antibiotics” value in experiment [3] is “improved susceptibility”. For the same compound, in the experiment with P. aeruginosa PAO1 [4] (16 μg/mL carbenicillin alone), the “growth of P. aeruginosa PAO1 in human serum” value is on record as “initial inhibition, this inhibition was followed by a full recovery of growth”. Further, the “percent of the inoculants killed in human serum” value in the experiment with P. aeruginosa PAO1 [4] (2 mM spermine added along with 16 μg/mL carbenicillin, 24 hours) was “more than 99%”. Also, in experiment [5] (with 1 mM spermine), the “MICs in the indicated concentrations (mM) of polyamines: Spermine (1 mM)” value is 1 µg/mL. For the same compound, the “MICs in the indicated concentrations (mM) of polyamines: Spermidine (20 mM)” value in experiment [5] (with 20 mM spermidine) was determined as 2 µg/mL.

Consider `NCCCNCCCCNCCCN` [Spermine], for which the “MICs to carbenicillin in the indicated concentration of polyamines” value in the experiment on P. aeruginosa PAO1 [7] (0 mM polyamine) is 64 µg/mL; with P. aeruginosa PAO1 [7] (0.5 mM polyamine), 16 µg/mL; in the experiment with P. aeruginosa PAO1 [7] (1 mM polyamine), 4 µg/mL; in the experiment with P. aeruginosa PAO1 [7] (5 mM polyamine) it was 4 µg/mL; in the experiment on P. aeruginosa PAO1 [7] (10 mM polyamine) it was 4 µg/mL; in the experiment with P. aeruginosa PAO1 [7] (20 mM polyamine), 4 µg/mL. Further, the “growth of P. aeruginosa PAO1 in human serum” value in the experiment on P. aeruginosa PAO1 [4] (presence or absence of 2 mM spermine) was “not affected”. In addition, the β-lactamase activity detected result in [8] was “only a very low level”.
